This is an account of results in publication PMC9370166, “In Vitro and In Vivo Antibacterial Activity, Toxicity and Resistance Analysis of Pleuromutilin Derivative Z33 against Methicillin-Resistant Staphylococcus aureus” (Molecules, 2022).

In data set [1] the test system is MRSA ATCC 43300. Description: Time-kill kinetics assay. The class given is cell-based, Staphylococcus aureus. Particulars: 8 × MIC; over 24 h of exposure. On the procedure: The time–kill kinetics curve of Z33 was determined according to previous reports. MRSA ATCC 43300 strains were grown in Mueller–Hinton Broth (MHB) at the starting inoculum of 10^6 CFU/mL. […] MHB without antibiotics was used as a control. At various time points (0, 3, 6, 9, and 24 h), 100 µL of samples were diluted with 0.9% saline and plated on MHA medium. CFU were recorded after 24 h of incubation at 37 °C.

The subject of data set [2] is four S. aureus strains. Description: MIC and MBC, summary over four strains. The class given is cell-based. As to conditions: Staphylococcus aureus; range over four strains; read-out: MIC values against four S. aureus strains. On the procedure:
The MIC values of Z33 against MRSA ATCC 43300 and S. aureus clinical isolates were measured according to the broth microdilution guidelines provided by the Clinical and Laboratory Standards Institute (CLSI). S. aureus ATCC 29213 was used as the quality control strain, and the quality control range was referred to the CLSI. The MIC value is defined as the lowest concentration of the compounds with no visible growth of bacteria. The MIC assay was independently repeated three times.
The MBC values of antibacterial agents were measured after incubation at 37 °C for 24 h. Briefly, 100 µL of bacterial solution from the three wells behind the corresponding well of MIC was absorbed and spread on the Mueller–Hinton Agar (MHA). The MBC refers to the lowest concentration corresponding to the amount of colony-forming unit (CFU) ≤ 5 on the medium after 18~24 h of incubation at 37 °C.

In data set [3] the test system is MRSA ATCC 43300. Description: Neutropenic mouse thigh infection model. The class given is in vivo, mice. On the procedure: The neutropenic mouse thigh infection model was used to determine the in vivo antibacterial activity of Z33 [23]. Briefly, female mice were rendered neutropenic (neutrophil count ≤ 100/mm^3) via intraperitoneal injection of cyclophosphamide on day 4 (150 mg/kg) and day 1 (100 mg/kg) before infection. MRSA ATCC 43300 cells were collected in the logarithmic phase and resuspended in 0.9% saline. The thigh infection model was established by injection of 100 μL of MRSA suspension (10^7 CFU/mL) into the posterior thighs of mice. After 2 h post-infection, mice were intravenously injected with tiamulin and Z33 at a dose of 20 mg/kg, and the untreated groups were administrated with an equal amount of saline. Mice were euthanized after treatment of 22 h, thigh tissue was aseptically collected, weighed, homogenized, and serially diluted in saline, respectively. CFU counts were determined by the flat colony counting method.

Data set [4] is described as follows: Acute oral toxicity in mice. Particulars: both sexes, ICR, mouse, in vivo, 5 g/kg; acute oral toxicity, mice. On the procedure:
(§1) The acute toxicity of Z33 was performed in mice according to previous works with some modifications. The ICR mice were randomly divided into two groups (10 animals in each group, half male and half female) after 12 h of fasting. Z33 was prepared with 0.5% CMC-Na sodium as a suspension at a concentration of 5 g/kg. Mice in the test group were administered with Z33 suspension by oral administration route, and the control group received an equal dose of 0.5% CMC-Na. All the mice were observed critically once a day for 14 days. The test was repeated twice.

A further data set deals with ICR mice. Description: Acute oral toxicity in mice. As to conditions: mouse, in vivo, po, 5000 mg/kg. How it is done:
as §1

The test system of data set [5] is four S. aureus strains. Description: MPC, summary over four strains. The class given is cell-based, Staphylococcus aureus. How it is done:
The drug-resistant tendency suppression potential of Z33 and tiamulin was determined as described with minor modifications. In the test, for each S. aureus strain, 4 mL of overnight cultures were inoculated into 100 mL of fresh BHI broth and then incubated for 4.5 h at 37 °C with shaking (210 rpm). Cultures were centrifuged at 5000 r/min for 10 min. The supernatant was discarded and resuspended in the 4 mL of saline to achieve a bacterial density of ~3 × 10^10 CFU/mL. In total, 100 μL of each culture was spread onto MHA containing various concentrations of Z33 and tiamulin. […] Plates were incubated at 37 °C for a total of 72 h and recorded every 24 h for the appearance of colonies. MPC was defined as the lowest concentration with no growth of colonies on the agar plate. MPC was carried out in triplicate.

Another data set has as its target T1, CYP3A4 (Homo sapiens, UniProt P08684).
T1 construct: 40 µL of the human liver microsomal enzyme (final concentration is 0.5 g/L); tissue Research Institute for Liver Diseases Co., Ltd. (Shanghai, China); host or cells: human liver microsomes
The data set is described as follows: CYP450 inhibition assay, human liver microsomes, testosterone probe. It counts as in vitro ADME. On the procedure:
The inhibition effect of Z33 and tiamulin on the human liver microsomal enzyme was determined as described in the literature with some modifications. Experiments were performed in 96-well plates with a final incubation volume of 100 μL per well. 40 µL of the human liver microsomal enzyme (final concentration is 0.5 g/L), 20 µL of probe substrate (final concentration of testosterone and chlorzoxazone is 20 µmol/L), and 20 µL of test drug were mixed in each well. After preincubation at 37 °C for 5 min, the reactions were started by the addition of 20 μL of NADPH (final concentration is 1 mmol/L). Depending on the substrate, the chlorzoxazone and testosterone groups were incubated at 37 °C for 25 min and 10 min, respectively. The reaction was terminated by adding 100 µL of acetonitrile, and then the supernatant was centrifuged to analyse by LC-MS/MS.

In data set [6] the test system is MRSA ATCC 43300. The data set is described as follows: Post-antibiotic effect assay. The class given is cell-based, Staphylococcus aureus. How it is done:
The PAE was measured using the method described by Jin et al.. MRSA ATCC 43300 cells were collected in the logarithmic phase and resuspended in MHB. The bacterial suspension (10^6 CFU/mL) was inoculated in MHB containing Z33 (final concentration is 2 × or 4 × MIC) and incubated for 1 or 2 h at 37 °C with shaking (210 rpm). The group without the drug served as a control. After treatment with various concentrations of Z33, samples were subjected to one-thousand-fold dilution with MHB to remove the drug and incubated at 37 °C. In total, 100 µL of the samples was serially diluted in 0.9% saline and plated onto MHA at various time points (0, 1, 2, 4, 8 h). MHA plates were incubated at 37 °C for 18~24 h to calculate CFU. The growth kinetic curves of MRSA treated with different drug concentrations were established by plotting log10 CFU/mL of bacterial counts versus time. PAE was presented in hours and calculated according to the following equation: PAE = TA − TC, where TA and TC are the time required for MRSA to rise by 1 log10 CFU/mL after drug removal in the treated and untreated cultures, respectively.

Molecules are shown by their SMILES. Converted amounts (≈) assume the structure as drawn. Some results are limits rather than exact numbers.

T1 sequence (P08684 whole entry): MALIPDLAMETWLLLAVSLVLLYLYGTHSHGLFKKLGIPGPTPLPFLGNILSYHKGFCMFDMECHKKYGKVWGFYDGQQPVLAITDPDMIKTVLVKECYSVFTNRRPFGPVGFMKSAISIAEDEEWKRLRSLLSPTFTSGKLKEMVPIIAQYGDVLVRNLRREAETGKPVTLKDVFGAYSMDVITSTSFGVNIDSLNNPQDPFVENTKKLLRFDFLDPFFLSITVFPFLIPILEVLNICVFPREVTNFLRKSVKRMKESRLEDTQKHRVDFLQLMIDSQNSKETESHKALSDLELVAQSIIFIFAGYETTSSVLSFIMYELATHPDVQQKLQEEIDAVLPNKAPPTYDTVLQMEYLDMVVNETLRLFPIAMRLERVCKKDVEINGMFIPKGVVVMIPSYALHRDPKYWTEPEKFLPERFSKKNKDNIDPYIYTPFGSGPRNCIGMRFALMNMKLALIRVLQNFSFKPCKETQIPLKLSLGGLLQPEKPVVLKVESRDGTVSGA

Regarding `C=C[C@]1(C)C[C@@H](OC(=O)CSc2ccccc2NC(=O)Cn2cc(CN3CCN(c4ccc([N+](=O)[O-])cc4)CC3)nn2)[C@]2(C)[C@H](C)CC[C@]3(CCC(=O)[C@H]32)[C@@H](C)[C@@H]1O` [Compound Z33, 22-(2-(2-(4-((4-(4-nitrophenyl)piperazin-1-yl)methyl)-1H-1,2,3-triazol-1-yl)acetamido)phenyl)thioacety-l-yl-22-deoxypleuromutilin], in the data set on MRSA ATCC 43300 [1], the “concentration showing inhibition of bacterial growth (time-kill)” value is 1 µg/mL. Moreover, the MIC with four S. aureus strains [2] is 0.125 to 0.25 µg/mL (≈ 0.154 to 0.307 µM). In addition, the “MRSA inoculum in the thigh muscle” value in the data set on MRSA ATCC 43300 [3] (20 mg/kg intravenous, after treatment for 24 h) amounted to 7.065 ± 0.070 log10 CFU/g. Also, in the data set with MRSA ATCC 43300 [3] (20 mg/kg intravenous, versus untreated group), the “reduction of bacterial load in the thigh muscle” value is “approximately 1.358 log10 CFU/g”. Besides, in the data set on MRSA ATCC 43300 [3] (20 mg/kg, p < 0.0001), the “reduction in CFUs compared with the control group” value turned out to be 1.358 log10. Further, the LD50 at 14 days in data set [4] is above 5000 mg/kg. Also, the mortality entry in the data set with ICR mice is “None of the mice died”. In the data set with four S. aureus strains [5], the “MPCs to four S. aureus strains” value turned out to be 0.5 µg/mL. For the same molecule, the IC50 against CYP3A4 is 1570 nM. Further, the PAE was found to be 2.24 h in the data set with MRSA ATCC 43300 [6] (2 × MIC, exposure for 1 h); 2.18 h in the data set with MRSA ATCC 43300 [6] (2 × MIC, exposure for 2 h); 3.89 h in the data set on MRSA ATCC 43300 [6] (4 × MIC, exposure for 1 h); 3.93 h in the data set on MRSA ATCC 43300 [6] (4 × MIC, exposure for 2 h).
